Results reported in US8034556B2, “Regulation of glucose and insulin levels by GnT-4 glycosyltransferase activity” (The Regents of the University of California, priority 2004, dated 2011).

Tests used:
islet cells = assay: In vitro islet cell glucose transport assay (2-NBDG uptake); format: cell-based, mouse; settings: for Km: Lineweaver-Burke plot, 5 min incubation
Procedure: Mouse islet cells were obtained as described (Josefsen et al., J. Endocrinology 14: 145-154, 1996). Briefly, the pancreatic duct was ligated distally and injected with 3 mg/ml collagenase (Sigma), 5 μg/ml DNase (Sigma) and 5.6 mM glucose in Hank's balanced salt solution (HBSS)). The pancreas was removed and incubated for 14 min at 37° C. with shaking (200 strokes/min). The suspension was passed through a 16 gauge needle, centrifuged and suspended in the bottom layer of a discontinuous Ficoll gradient (11%, 20%, 23%, and 25%). After 15 min of centrifugation at 800× gravity at room temperature, cells were recovered from the interfaces and washed in HBSS, followed by hand selection of the islet-enriched interface under a stereomicroscope. Islets were gently dispersed after three consecutive washes with HBSS, then exposed to 0.5 U/ml of dispase (Calbiochem) in HBSS for 3 min. This was followed by gentle repetitive pipeting and a final wash with HBSS. The cells were cultured in RPMI-1640 medium containing 10% FCS, 2 mM L-glutamine, 0.1 mM 2-mercaptoethanol, and 11 mM glucose.
Glucose transport into islet cells was measured using 2-[N-(7-nitrobenz-2-oxa-1,3-diazol-4-yl)amino]-2-deoxy-D-glucose (2-NBDG, Molecular Probes) as described (Yamada et al., J. Biol. Chem. 275: 22278-22283, 2000) Islet cells were incubated in glucose free-KRBH for 20 min at 37° C., and then with various concentrations of 2-NBDG. To measure the time course of 2-NBDG transport, islet cells were incubated with 500 μM of 2-NBDG in KRBH in the presence or absence of 10 mM D-glucose for the indicated times (FIG. 2K), then washed three times with glucose free-KRBH, and intracellular fluorescence (excitation 485-495 nm, emission 515-525 nm) was measured using a VersaFluor Fluorometer System (Bio-Rad, Hercules, Calif.). Concentration dependence was determined in same conditions except that cells were incubated with 100 μM, 200 μM, 400 μM, 800 μM, 1.6 mM, 3.2 mM, or 6.4 mM of 2-NBDG for 5 min.

[1] = Arginine tolerance test (serum insulin after L-arginine injection); format: in vivo; settings: wild-type and GnT-4a deficient mice, fasted 16 hr, i.p. 3 g/Kg
Procedure: Mice were fasted for 16 hr followed by intraperitoneal (i.p.) glucose injection (1.5 g/Kg body weight). Blood samples were obtained at 0, 30, 60, 120, and 240 min after the injection and measurements of glucose and insulin was determined, the latter using a rat insulin ELISA assay with a mouse insulin standard (Crystal Chem., Chicago, Ill.). In testing insulin tolerance, mice were injected i.p. with 2 U/kg body weight human insulin (Carbiochem, La Jolla, Calif.) followed by blood collection at 0, 30, 60 120, and 240 min after injection, and serum glucose levels were analyzed. In arginine tolerance tests, mice were fasted overnight for 16 hr followed by i.p. injection (3 g/Kg body weight) of L-arginine (Sigma, St. Louis, Mo.). Blood samples were analyzed at 0, 2, 5, 15, and 30 min after the injection.

| SMILES | Km (islet cells; Mgat4a null islet cells) [mM] | Vmax of 2-NBDG uptake (islet cells; Mgat4a null islets) [nmol/5 min/0.5×10^5 cells] | Km (islet cells; wild-type islet cells) [mM] | Vmax of 2-NBDG uptake (islet cells; wild-type islets) [nmol/5 min/0.5×10^5 cells] | Serum insulin concentrations after L-arginine treatment [1] |
| --- | --- | --- | --- | --- | --- |
| O=[N+]([O-])c1ccc(N[C@H]2C(O)O[C@H](CO)[C@@H](O)[C@@H]2O)c2nonc12 (stereo partly drawn) [2-NBDG, 2-[N-(7-nitrobenz-2-oxa-1,3-diazol-4-yl)amino]-2-deoxy-D-glucose] | 9.1 | 1.86 | 9.53 | 16.95 | – |
| N=C(N)NCCC[C@H](N)C(=O)O [L-arginine] | – | – | – | – | robust increases in serum insulin concentrations |
